In patent US8859587B2, “(2E)-3-phenyl-N-[2,2,2-Trifluoro-1-[[8-quinolineamino)thiomethyl]amino]ethyl]-2-acrylamide and pharmaceutical uses thereof” (Chinese PLA General Hospital, priority 2010, dated 2014):
Read-outs that look alike come from different tables or passages of the source. Marks after values point to notes of the source that are not given here.

Assays:
Type in all cases: cell-based, Wistar rats
[1] = test system: cardiac muscle cells induced by Tunicamycin (TM); assay: Survival rate of TM-induced cardiac muscle cells detected by MTT method; details: for Cell survival rate (%): MTT
Procedure: (§1) The separation and culture of cardiomyocyte refer to the method of differential adhesion separation (Kreider, A. Messing, H. Doan, S. U. Kim, R. P. Lisak and D. E. Pleasure, Enrichment of Schwann cell cultures from neonatal rat sciatic nerve by differential adhesion, Brain Res 2 (1981), pp. 433-444.), Wistar neonate rats newly born within 24 h were used to obtain primary cardiac muscle cells.
The separated cardiac muscle cells were inoculated in an amount of 10^4 cells per well to a 96-well plate, and the volume of each well was 100 μl (marginal wells were filled with sterile PBS). […] After continuous inoculation, each well was added with 20 μl of MTT solution (5 mg/ml, formulated with PBS (pH=7.4), i.e., 0.5% MTT), and the cultivation was continued for 4 h. After the end of cultivation, culture medium in wells was carefully sucked out. Each well was added with 150 μl of DMSO, shaken at a low speed in a shaking table for 10 min, so that the crystal was sufficiently dissolved. The optical density (OD) value of each well was measured at wavelength of 490 nm by enzyme-linked immunoassay instrument, and each well was repeatedly measured for 3 times and the results were recorded. The cell survival rate at each time point was calculated according to: […], and a cell growth curve was drawn by using time as abscissa and optical density as ordinate.

elF2α and P-elF2α = assay: Western blot of elF2α and P-elF2α expression; details: 1, 2, 5, 10, 20, 40 μM for 48 h
Procedure: (12000 rpm×10 min), collected supernatant. Nitrocellulose membrane was dipped in a transferring buffer for 15-20 min in advance. Sampled in 50 μg protein/lane, subjected to 10% polyacrylamide gel SDS-PAGE electrophoretic separation, the gel was then tiled in electrotransferring clamp, in which sponge, filter paper, gel, nitrocellulose membrane, filter paper and sponge were mounted from negative electrode to positive electrode in order. Constant current 350 mA, electrotransferred for 45 min. Electrotransferring membrane to […], the nitrocellulose membrane was taken out, the membrane was washed with TBST for 2 min, sealed with 5% defatted milk powder at room temperature for 1 h, added with first antibody (1:1000) and incubated at 4° C. overnight, the membrane was washed with TBST, 3 times×5 min, then […] second antibody was added, incubated at room temperature for 1 h, washed with TBST, 3 times×5 min, soaked separately with TSM1 and TSM2 for 5 min and 10 min, developed with chromogenic substrates 6.6 μl NBT and 3.3 μl BCIP dissolved in 1 ml of TSM2, after bonds become clear, the reaction was terminated by washing with water. After the end of development, the records were stored by scanning or taking photos.

[2] = test system: primary cardiac muscle cells; details: 48 h, MTT, normal cells
Procedure: Animal: newly born Wistar rats, rat age: within 24 h, male and female
as §1
The separated primary culture of cardiac muscle cells as obtained by the above method were inoculated in an amount of 10^4 cells per well to a 96-well plate, and the volume of each well was 100 μl (marginal wells were filled with sterile PBS). After being cultivated in 5% CO2 and 37° C. incubator for 4 d, they were added with the compound of Formula 1 at different concentrations (0.3 μM, 1 μM, 3 μM, 10 μM, 30 μM, 100 μM), 3 double-wells were set for each concentration, at the same time, zero setting wells (culture medium, MTT, DMSO), and control wells (culture medium, DMSO) were also set. After continuous inoculation for 48 h, each well was added with 20 μl of MTT solution (5 mg/ml, formulated with PBS (pH=7.4), i.e., 0.5% MTT), and the cultivation was continued for 4 h. After the end of cultivation, culture medium in wells was carefully sucked out. Each well was added with 150 μl of DMSO, shaken at a low speed in a shaking table for 10 min, so that the crystal was sufficiently dissolved. The optical density (OD) value of each well was measured at wavelength of 550 nm by enzyme-linked immunoassay instrument, and each well was repeatedly measured for 5 times and the results were recorded.

[3] = test system: primary cardiac muscle cells induced by TM; assay: Cardiomyocyte apoptosis induced by TM, AnnexinV-FITC flow cytometer; details: for Cardiomyocyte apoptosis rate detected by flow cytometer (%): 24 h
Procedure: (§2) The primary cardiac muscle cells obtained by the method according to the culture method of primary cardiac muscle cells of Example 1 were added with tunicamycin (TM) on the 4th day to perform interference test. The cells were randomly divided into 5 groups: solvent control group (DMSO), TM interference group (5 μg/ml), Compound of Formula I+TM interference group (10 μM+5 μg/ml), Compound of Formula I interference group ([…]+5 μg/ml), Compound of Formula I interference group ([…]+5 μg/ml).
it is 24 h after drug interference, the cells were treated by the method of AnnexinV-FITC apoptosis kit, and the apoptosis was detected within 1 h by using a flow cytometer (BD ACScalibur, US Becton-Dickinson Company). For each sample, 14000 cells were collected and analyzed, the test was repeated for 3 times, and the average value was used as a result.

[4] = test system: primary cardiac muscle cells induced by TM; assay: Cardiomyocyte apoptosis induced by TM, TUNEL detection; details: for TUNEL detection (%) cardiomyocyte apoptosis rate: 24 h, n = 6
Procedure: as §2
It was 24 h after drug interference, the apoptotic cells were detected by terminal deoxynucleotidyl transferase-mediated biotinylated UTP nick end labeling (TUNEL) method, and the cells were treated according to the specification of kit. The cells treated with 0.1 mg/ml DNase I and growing on a glass slide were used as positive control. 5 or more visual fields were randomly selected under light microscope, the apoptotic cells (brown yellow granules seen in nucleus) among the cells were counted. Apoptosis rat=(number of positively stained nuclei/number of all nuclei)×100%.

## O=C(/C=C/c1ccccc1)NC(NC(=S)Nc1cccc2cccnc12)C(Cl)(Cl)Cl (stereo not drawn) [Compound of Formula I, (2E)-3-phenyl-N-[2,2,2-trichloro-1-[[(8-quinolylamino)thiomethyl]amino]ethyl]-2-acrylamide]
[1]; 5 μM pretreatment 30 min + TM 5 μg/ml
  Cell survival rate (%): 82.6106 ± 8.1018 %
[1]; 10 μM pretreatment 30 min + TM 5 μg/ml
  Cell survival rate (%): 83.8371 ± 8.2608 %
[1]; 20 μM pretreatment 30 min + TM 5 μg/ml
  Cell survival rate (%): 84.6255 ± 5.5519 %
[1]; 40 μM + TM 5 μg/ml
  Cell survival rate (%): 85.4139 ± 5.6916 %
[1]; pretreatment in various concentrations, p<0.05
  cell survival rate in comparison with the TM group: significant increase of cell survival rate
elF2α and P-elF2α
  expression level of P-elF2α: gradually increases with the increase of the concentration
  expression levels of elF2α: no significant change
[2]; 0.3 μM
  Cardiomyocyte survival rate (%): 98.8562 ± 6.7316^a %
[2]; 1 μM
  Cardiomyocyte survival rate (%): 91.6667 ± 7.6257^a %
[2]; 3 μM
  Cardiomyocyte survival rate (%): 94.5261 ± 3.7997^a %
[2]; 10 μM
  Cardiomyocyte survival rate (%): 102.7778 ± 3.0645^a %
[2]; 30 μM
  Cardiomyocyte survival rate (%): 105.8007 ± 3.2639^a %
[2]; 100 μM
  Cardiomyocyte survival rate (%): 104.2484 ± 7.3625^a %
[3]; 10 μM + TM 5 μg/ml
  Cardiomyocyte apoptosis rate detected by flow cytometer (%): 22.98 ± 1.35^ab %
[3]; 20 μM + TM 5 μg/ml
  Cardiomyocyte apoptosis rate detected by flow cytometer (%): 20.13 ± 0.87^ab %
[3]; 40 μM + TM 5 μg/ml
  Cardiomyocyte apoptosis rate detected by flow cytometer (%): 18.64 ± 0.83^ab %
[3]; 10, 20, 40 μM, P<0.05
  apoptosis rates in comparison with the TM group (flow cytometer): significantly decreased apoptosis rates
[4]; 10 μM + TM 5 μg/mL
  TUNEL detection (%) cardiomyocyte apoptosis rate: 25.75 ± 0.97 ^b %
[4]; 20 μM + TM 5 μg/mL
  TUNEL detection (%) cardiomyocyte apoptosis rate: 24.94 ± 0.82 ^b %
[4]; 40 μM + TM 5 μg/mL
  TUNEL detection (%) cardiomyocyte apoptosis rate: 21.15 ± 0.85 ^b c %
[4]; 10, 20, 40 μM, P<0.05
  apoptosis rate in comparison with the TM interference group (TUNEL): significant decrease in apoptosis rate
